# In patent US9693556B2, “Herbicidal pyridazinone derivatives” (SYNGENTA LIMITED, priority 2011, dated 2017):
# Key:
# Type in all cases: in vivo
# [1] = tested on: Alopecurus myosuroides (ALOMY); assay: Pre-emergence herbicidal glasshouse test on Alopecurus myosuroides; details: pre-emergence; 1000 g/h; evaluated after 13 days
# How it was run: (§1)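 Application rate 1000 g/h, formulated in acetone/water (50:50) with 0.5% Tween 20 and sprayed onto pots sown 1 day (pre-emergence) or 8 days (post-emergence) earlier. Evaluation at 13 days rated damage from 1 (0-19%) to 5 (80-100%).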
# Setaria faberi (SETFA) [2] = assay: Pre-emergence herbicidal glasshouse test on Setaria faberi; details: pre-emergence; 1000 g/h; evaluated after 13 days
# How it was run: as §1
# [3] = tested on: Echinochloa crus-galli (ECHCG); assay: Pre-emergence herbicidal glasshouse test on Echinochloa crus-galli; details: pre-emergence; 1000 g/h; evaluated after 13 days
# How it was run: as §1
# Solanum nigrum (SOLNI) [4] = assay: Pre-emergence herbicidal glasshouse test on Solanum nigrum; details: pre-emergence; 1000 g/h; evaluated after 13 days
# How it was run: as §1
# [5] = tested on: Amaranthus retoflexus (AMARE); assay: Pre-emergence herbicidal glasshouse test on Amaranthus retoflexus; details: pre-emergence; 1000 g/h; evaluated after 13 days
# How it was run: as §1
# [6] = tested on: Ipomoea hederacea (IPOHE); assay: Pre-emergence herbicidal glasshouse test on Ipomoea hederacea; details: pre-emergence; 1000 g/h; evaluated after 13 days
# How it was run: as §1
# [7] = tested on: Alopecurus myosuroides (ALOMY); assay: Post-emergence herbicidal glasshouse test on Alopecurus myosuroides; details: post-emergence; 1000 g/h; evaluated after 13 days
# How it was run: as §1
# Setaria faberi (SETFA) [8] = assay: Post-emergence herbicidal glasshouse test on Setaria faberi; details: post-emergence; 1000 g/h; evaluated after 13 days
# How it was run: as §1
# [9] = tested on: Echinochloa crus-galli (ECHCG); assay: Post-emergence herbicidal glasshouse test on Echinochloa crus-galli; details: post-emergence; 1000 g/h; evaluated after 13 days
# How it was run: as §1
# Solanum nigrum (SOLNI) [10] = assay: Post-emergence herbicidal glasshouse test on Solanum nigrum; details: post-emergence; 1000 g/h; evaluated after 13 days
# How it was run: as §1
# [11] = tested on: Amaranthus retoflexus (AMARE); assay: Post-emergence herbicidal glasshouse test on Amaranthus retoflexus; details: post-emergence; 1000 g/h; evaluated after 13 days
# How it was run: as §1
# [12] = tested on: Ipomoea hederacea (IPOHE); assay: Post-emergence herbicidal glasshouse test on Ipomoea hederacea; details: post-emergence; 1000 g/h; evaluated after 13 days
# How it was run: as §1
smiles,measurement,setting,value
C=Cn1ncc(-c2ccccc2S(C)(=O)=O)c(O)c1=O [Compound 2.054],PRE Application ALOMY herbicidal damage (five point scale),[1],5 (5=80-100% damage)
same,PRE Application SETFA herbicidal damage (five point scale),Setaria faberi (SETFA) [2],5 (5=80-100% damage)
same,PRE Application ECHCG herbicidal damage (five point scale),[3],5 (5=80-100% damage)
same,PRE Application SOLNI herbicidal damage (five point scale),Solanum nigrum (SOLNI) [4],5 (5=80-100% damage)
same,PRE Application AMARE herbicidal damage (five point scale),[5],5 (5=80-100% damage)
same,PRE Application IPOHE herbicidal damage (five point scale),[6],4 (4=60-79% damage)
same,POST Application ALOMY herbicidal damage (five point scale),[7],5 (5=80-100% damage)
same,POST Application SETFA herbicidal damage (five point scale),Setaria faberi (SETFA) [8],5 (5=80-100% damage)
same,POST Application ECHCG herbicidal damage (five point scale),[9],5 (5=80-100% damage)
same,POST Application SOLNI herbicidal damage (five point scale),Solanum nigrum (SOLNI) [10],5 (5=80-100% damage)
same,POST Application AMARE herbicidal damage (five point scale),[11],5 (5=80-100% damage)
same,POST Application IPOHE herbicidal damage (five point scale),[12],5 (5=80-100% damage)
Cn1ncc(-c2cc3cc(F)cnc3n(-c3ccsc3)c2=O)c(O)c1=O [Compound 1.074],PRE Application ALOMY herbicidal damage (five point scale),[1],2 (2=20-39% damage)
same,PRE Application SETFA herbicidal damage (five point scale),Setaria faberi (SETFA) [2],1 (1=0-19% damage)
same,PRE Application ECHCG herbicidal damage (five point scale),[3],4 (4=60-79% damage)
same,PRE Application SOLNI herbicidal damage (five point scale),Solanum nigrum (SOLNI) [4],1 (1=0-19% damage)
same,PRE Application AMARE herbicidal damage (five point scale),[5],5 (5=80-100% damage)
same,PRE Application IPOHE herbicidal damage (five point scale),[6],1 (1=0-19% damage)
same,POST Application ALOMY herbicidal damage (five point scale),[7],2 (2=20-39% damage)
same,POST Application SETFA herbicidal damage (five point scale),Setaria faberi (SETFA) [8],5 (5=80-100% damage)
same,POST Application ECHCG herbicidal damage (five point scale),[9],5 (5=80-100% damage)
same,POST Application SOLNI herbicidal damage (five point scale),Solanum nigrum (SOLNI) [10],5 (5=80-100% damage)
same,POST Application AMARE herbicidal damage (five point scale),[11],5 (5=80-100% damage)
same,POST Application IPOHE herbicidal damage (five point scale),[12],5 (5=80-100% damage)
CCCn1ncc(-c2c(Cl)cccc2Cl)c(O)c1=O [Compound 1.129],PRE Application ALOMY herbicidal damage (five point scale),[1],1 (1=0-19% damage)
same,PRE Application SETFA herbicidal damage (five point scale),Setaria faberi (SETFA) [2],1 (1=0-19% damage)
same,PRE Application ECHCG herbicidal damage (five point scale),[3],1 (1=0-19% damage)
same,PRE Application SOLNI herbicidal damage (five point scale),Solanum nigrum (SOLNI) [4],1 (1=0-19% damage)
same,PRE Application AMARE herbicidal damage (five point scale),[5],1 (1=0-19% damage)
same,PRE Application IPOHE herbicidal damage (five point scale),[6],1 (1=0-19% damage)
same,POST Application ALOMY herbicidal damage (five point scale),[7],1 (1=0-19% damage)
same,POST Application SETFA herbicidal damage (five point scale),Setaria faberi (SETFA) [8],2 (2=20-39% damage)
same,POST Application ECHCG herbicidal damage (five point scale),[9],2 (2=20-39% damage)
same,POST Application SOLNI herbicidal damage (five point scale),Solanum nigrum (SOLNI) [10],3 (3=40-59% damage)
same,POST Application AMARE herbicidal damage (five point scale),[11],3 (3=40-59% damage)
same,POST Application IPOHE herbicidal damage (five point scale),[12],2 (2=20-39% damage)
Cn1ncc(-c2ccc(C(F)(F)F)cc2[N+](=O)[O-])c(O)c1=O [Compound 1.110],PRE Application ALOMY herbicidal damage (five point scale),[1],1 (1=0-19% damage)
same,PRE Application SETFA herbicidal damage (five point scale),Setaria faberi (SETFA) [2],1 (1=0-19% damage)
same,PRE Application ECHCG herbicidal damage (five point scale),[3],1 (1=0-19% damage)
same,PRE Application SOLNI herbicidal damage (five point scale),Solanum nigrum (SOLNI) [4],1 (1=0-19% damage)
same,PRE Application AMARE herbicidal damage (five point scale),[5],5 (5=80-100% damage)
same,PRE Application IPOHE herbicidal damage (five point scale),[6],1 (1=0-19% damage)
same,POST Application ALOMY herbicidal damage (five point scale),[7],1 (1=0-19% damage)
same,POST Application SETFA herbicidal damage (five point scale),Setaria faberi (SETFA) [8],1 (1=0-19% damage)
same,POST Application ECHCG herbicidal damage (five point scale),[9],3 (3=40-59% damage)
same,POST Application SOLNI herbicidal damage (five point scale),Solanum nigrum (SOLNI) [10],5 (5=80-100% damage)
same,POST Application AMARE herbicidal damage (five point scale),[11],5 (5=80-100% damage)
same,POST Application IPOHE herbicidal damage (five point scale),[12],5 (5=80-100% damage)
Cc1c(-c2cnn(C(C)C)c(=O)c2O)ccc(S(C)(=O)=O)c1C1=NOCC1 [Compound 1.012],PRE Application ALOMY herbicidal damage (five point scale),[1],4 (4=60-79% damage)
same,PRE Application SETFA herbicidal damage (five point scale),Setaria faberi (SETFA) [2],4 (4=60-79% damage)
same,PRE Application ECHCG herbicidal damage (five point scale),[3],5 (5=80-100% damage)
same,PRE Application SOLNI herbicidal damage (five point scale),Solanum nigrum (SOLNI) [4],5 (5=80-100% damage)
same,PRE Application AMARE herbicidal damage (five point scale),[5],5 (5=80-100% damage)
same,PRE Application IPOHE herbicidal damage (five point scale),[6],4 (4=60-79% damage)
same,POST Application ALOMY herbicidal damage (five point scale),[7],5 (5=80-100% damage)
same,POST Application SETFA herbicidal damage (five point scale),Setaria faberi (SETFA) [8],5 (5=80-100% damage)
same,POST Application ECHCG herbicidal damage (five point scale),[9],5 (5=80-100% damage)
same,POST Application SOLNI herbicidal damage (five point scale),Solanum nigrum (SOLNI) [10],5 (5=80-100% damage)
same,POST Application AMARE herbicidal damage (five point scale),[11],5 (5=80-100% damage)
same,POST Application IPOHE herbicidal damage (five point scale),[12],5 (5=80-100% damage)
"Cn1ncc(-c2cnc(C(F)(F)F)nc2N2CCOCC2)c(O)c1=O [Compound 8.001, 4-hydroxy-2-methyl-5-[4-morpholino-2-(trifluoromethyl)pyrimidin-5-yl]pyridazin-3-one]",PRE Application ALOMY herbicidal damage (five point scale),[1],1 (1=0-19% damage)
same,PRE Application SETFA herbicidal damage (five point scale),Setaria faberi (SETFA) [2],2 (2=20-39% damage)
same,PRE Application ECHCG herbicidal damage (five point scale),[3],5 (5=80-100% damage)
same,PRE Application SOLNI herbicidal damage (five point scale),Solanum nigrum (SOLNI) [4],5 (5=80-100% damage)
same,PRE Application AMARE herbicidal damage (five point scale),[5],5 (5=80-100% damage)
same,PRE Application IPOHE herbicidal damage (five point scale),[6],3 (3=40-59% damage)
same,POST Application ALOMY herbicidal damage (five point scale),[7],1 (1=0-19% damage)
same,POST Application SETFA herbicidal damage (five point scale),Setaria faberi (SETFA) [8],2 (2=20-39% damage)
same,POST Application ECHCG herbicidal damage (five point scale),[9],5 (5=80-100% damage)
same,POST Application SOLNI herbicidal damage (five point scale),Solanum nigrum (SOLNI) [10],5 (5=80-100% damage)
same,POST Application AMARE herbicidal damage (five point scale),[11],5 (5=80-100% damage)
same,POST Application IPOHE herbicidal damage (five point scale),[12],5 (5=80-100% damage)
Cn1ncc(-n2ccc(C(F)(F)F)c(-c3cc(F)c(F)c(F)c3)c2=O)c(O)c1=O [Compound 7.017],PRE Application ALOMY herbicidal damage (five point scale),[1],5 (5=80-100% damage)
same,PRE Application SETFA herbicidal damage (five point scale),Setaria faberi (SETFA) [2],5 (5=80-100% damage)
same,PRE Application ECHCG herbicidal damage (five point scale),[3],5 (5=80-100% damage)
same,PRE Application SOLNI herbicidal damage (five point scale),Solanum nigrum (SOLNI) [4],5 (5=80-100% damage)
same,PRE Application AMARE herbicidal damage (five point scale),[5],5 (5=80-100% damage)
same,PRE Application IPOHE herbicidal damage (five point scale),[6],4 (4=60-79% damage)
same,POST Application ALOMY herbicidal damage (five point scale),[7],5 (5=80-100% damage)
same,POST Application SETFA herbicidal damage (five point scale),Setaria faberi (SETFA) [8],5 (5=80-100% damage)
same,POST Application ECHCG herbicidal damage (five point scale),[9],5 (5=80-100% damage)
same,POST Application SOLNI herbicidal damage (five point scale),Solanum nigrum (SOLNI) [10],5 (5=80-100% damage)
same,POST Application AMARE herbicidal damage (five point scale),[11],5 (5=80-100% damage)
same,POST Application IPOHE herbicidal damage (five point scale),[12],5 (5=80-100% damage)
COc1c(Cl)ccc(-c2cnn(C)c(=O)c2O)c1F [Compound 1.063],PRE Application ALOMY herbicidal damage (five point scale),[1],1 (1=0-19% damage)
same,PRE Application SETFA herbicidal damage (five point scale),Setaria faberi (SETFA) [2],1 (1=0-19% damage)
same,PRE Application ECHCG herbicidal damage (five point scale),[3],1 (1=0-19% damage)
same,PRE Application SOLNI herbicidal damage (five point scale),Solanum nigrum (SOLNI) [4],1 (1=0-19% damage)
same,PRE Application AMARE herbicidal damage (five point scale),[5],1 (1=0-19% damage)
same,PRE Application IPOHE herbicidal damage (five point scale),[6],1 (1=0-19% damage)
same,POST Application ALOMY herbicidal damage (five point scale),[7],1 (1=0-19% damage)
same,POST Application SETFA herbicidal damage (five point scale),Setaria faberi (SETFA) [8],1 (1=0-19% damage)
same,POST Application ECHCG herbicidal damage (five point scale),[9],1 (1=0-19% damage)
same,POST Application SOLNI herbicidal damage (five point scale),Solanum nigrum (SOLNI) [10],2 (2=20-39% damage)
same,POST Application AMARE herbicidal damage (five point scale),[11],3 (3=40-59% damage)
same,POST Application IPOHE herbicidal damage (five point scale),[12],3 (3=40-59% damage)
